Measured values reported in patent US9694016B2 (Novartis AG, priority 2013, dated 2017).

These molecules were tested against b-Raf (V600E) (Homo sapiens (Human), UniProt P15056, V600E). Settings: read-out: b-Raf IC-50.
Sequence of b-Raf (V600E) (P15056 whole entry V600E): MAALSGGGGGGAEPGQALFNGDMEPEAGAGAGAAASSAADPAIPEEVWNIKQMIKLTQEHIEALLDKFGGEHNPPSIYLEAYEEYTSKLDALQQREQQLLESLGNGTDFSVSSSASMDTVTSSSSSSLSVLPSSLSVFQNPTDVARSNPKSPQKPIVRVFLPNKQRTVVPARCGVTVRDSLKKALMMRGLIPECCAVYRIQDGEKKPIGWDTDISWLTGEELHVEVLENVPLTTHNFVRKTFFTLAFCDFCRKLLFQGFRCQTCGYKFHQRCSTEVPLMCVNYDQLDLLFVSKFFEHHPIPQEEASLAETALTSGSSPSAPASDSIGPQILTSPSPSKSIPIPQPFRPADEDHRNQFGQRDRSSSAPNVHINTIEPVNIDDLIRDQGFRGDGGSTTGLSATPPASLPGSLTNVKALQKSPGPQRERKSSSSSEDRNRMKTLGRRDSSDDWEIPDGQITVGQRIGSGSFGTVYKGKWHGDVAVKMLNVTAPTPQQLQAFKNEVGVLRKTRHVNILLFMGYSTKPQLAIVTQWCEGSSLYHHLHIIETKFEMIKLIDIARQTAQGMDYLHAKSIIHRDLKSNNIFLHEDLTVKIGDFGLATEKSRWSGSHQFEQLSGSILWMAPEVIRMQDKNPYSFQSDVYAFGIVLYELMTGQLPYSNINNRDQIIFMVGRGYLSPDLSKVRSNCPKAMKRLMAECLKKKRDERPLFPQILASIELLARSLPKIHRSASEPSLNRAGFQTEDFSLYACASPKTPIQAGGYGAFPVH

Structure (SMILES)	IC50 [nM]
CCOc1ncc(-c2cc(NC(=O)c3cnnc(C(F)(F)F)c3)cnc2C)cc1N1C2CCC1COC2 [Example 282, N-(5′-(3-oxa-8-azabicyclo[3.2.1]octan-8-yl)-6′-ethoxy-2-methyl-[3,3′-bipyridin]-5-yl)-6-(trifluoromethyl)pyridazine-4-carboxamide]	53

Same assay, conditions: read-out: b-Raf IC-50; AlphaScreen, 60 min pre-incubation, 3 hours reaction

IC50 [nM]	Structure (SMILES)
1.9	Cc1ccc(NC(=O)c2cccc(S(C)(=O)=O)c2)cc1-c1cc(N2CCOCC2)n(C)c(=O)c1 [Example 488, N-(4-methyl-3-(1-methyl-6-morpholino-2-oxo-1,2-dihydropyridin-4-yl)phenyl)-3-(methylsulfonyl)benzamide]
0.6	CCc1cc(C(=O)Nc2ccc(C)c(-c3cc(N4CCOCC4)n(C)c(=O)c3)c2)ccn1 [Example 476, 2-ethyl-N-(4-methyl-3-(1-methyl-6-morpholino-2-oxo-1,2-dihydropyridin-4-yl)phenyl)isonicotinamide]
0.6	Cc1ccc(NC(=O)c2cccc(C(C)(C)C#N)c2)cc1-c1cc(N2CCOCC2)c2nccn2n1 [Example 846, 3-(2-cyanopropan-2-yl)-N-(4-methyl-3-(8-morpholinoimidazo[1,2-b]pyridazin-6-yl)phenyl)benzamide]
1.3	Cc1ncc(NC(=O)c2cccc(C(F)(F)F)c2)cc1-c1cc(N2CCOCC2)n2nccc2n1 [Example 793]
4.5	Cc1ccc(NC(=O)c2cc(CN)cc(C(F)(F)F)c2)cc1-c1cc(N2CCOCC2)c(=O)n(C)c1 [Example 470, 3-(aminomethyl)-N-(4-methyl-3-(1-methyl-5-morpholino-6-oxo-1,6-dihydropyridin-3-yl)phenyl)-5-(trifluoromethyl)benzamide]
1.7	Cc1ccc(NC(=O)c2ccnc(C(F)(F)F)c2)cc1-c1cc(N2CCOCC2)nc(N2CC(O)C2)n1 [Example 773, N-(3-(2-(3-hydroxyazetidin-1-yl)-6-morpholinopyrimidin-4-yl)-4-methylphenyl)-2-(trifluoromethyl)isonicotinamide]
1.5	Cc1ncc(NC(=O)c2ccnc(C(C)(F)F)c2)cc1-c1cc(N2CCOCC2)n2nccc2n1 [Example 799, 2-(1,1-difluoroethyl)-N-(6-methyl-5-(7-morpholinopyrazolo[1,5-a]pyrimidin-5-yl)pyridin-3-yl)isonicotinamide]
12.3	CCOc1nnc(-c2cc(NC(=O)c3ccnc(S(C)(=O)=O)c3)cnc2C)cc1N1CCOCC1 [Example 615, N-(5-(6-ethoxy-5-morpholinopyridazin-3-yl)-6-methylpyridin-3-yl)-2-(methylsulfonyl)isonicotinamide]
2.2	Cc1ccc(NC(=O)c2ccnc(S(C)(=O)=O)c2)cc1-c1cc(N2CCOCC2)n(C)c(=O)c1 [Example 474, N-(4-methyl-3-(1-methyl-6-morpholino-2-oxo-1,2-dihydropyridin-4-yl)phenyl)-2-(methylsulfonyl)isonicotinamide]
44.8	Cc1ncc(C(=O)Nc2cccc(C(C)(C)C#N)c2)cc1-c1cc(N2CCOCC2)c(=O)n(C)c1 [Example 444, N-(3-(2-cyanopropan-2-yl)phenyl)-1′,2-dimethyl-5′-morpholino-6′-oxo-1′,6′-dihydro-[3,3′-bipyridine]-5-carboxamide]
0.6	Cc1ccc(NC(=O)c2ccnc(C3(C#N)CC3)c2)cc1-c1cc(N2CCOCC2)n(C)c(=O)c1 [Example 480, 2-(1-cyanocyclopropyl)-N-(4-methyl-3-(1-methyl-6-morpholino-2-oxo-1,2-dihydropyridin-4-yl)phenyl)isonicotinamide]
12	Cc1ncc(C(=O)Nc2cccc(C(F)F)c2)cc1-c1cc(N2CCOCC2)c(=O)n(C)c1 [Example 445, N-(3-(difluoromethyl)phenyl)-1′,2-dimethyl-5′-morpholino-6′-oxo-1′,6′-dihydro-[3,3′-bipyridine]-5-carboxamide]
0.7	CCOc1nc(-c2cc(NC(=O)c3ccnc(C(F)(F)F)c3)ccc2C)cc(N2CCOCC2)n1 [Example 762, N-(3-(2-ethoxy-6-morpholinopyrimidin-4-yl)-4-methylphenyl)-2-(trifluoromethyl)isonicotinamide]
3.5	COc1nnc(-c2cc(NC(=O)c3ccnc(C4CC4)c3)cnc2C)cc1N1CCOCC1 [Example 606, 2-cyclopropyl-N-(5-(6-methoxy-5-morpholinopyridazin-3-yl)-6-methylpyridin-3-yl)isonicotinamide]
2	CCOc1nnc(-c2cc(NC(=O)c3cnnc(C(C)(C)C#N)c3)ccc2C)cc1N1CCOCC1 [Example 567, 6-(2-cyanopropan-2-yl)-N-(3-(6-ethoxy-5-morpholinopyridazin-3-yl)-4-methylphenyl)pyridazine-4-carboxamide]

Same assay, conditions: read-out: b-Raf IC-50; AlphaScreen, 60 min pre-incubation, reaction 3 hours at room temperature

IC50 [nM]	Structure (SMILES)
2.34	Cc1ncc(NC(=O)c2cccc(C(F)(F)F)c2)cc1-c1cc(N2CCOCC2)nc(N2CCC(O)C2)c1 (stereo not shown) [Example 1131, N-(2′-(3-hydroxypyrrolidin-1-yl)-2-methyl-6′-morpholino-[3,4′-bipyridin]-5-yl)-3-(trifluoromethyl)benzamide]
4.56	CCC(F)(F)c1cc(C(=O)Nc2cnc(C)c(-c3cc(C4COCCO4)nc(N4CCOCC4)c3)c2)ccn1 (stereo not shown) [Example 1168, N-(2′-(1,4-dioxan-2-yl)-2-methyl-6′-morpholino-[3,4′-bipyridin]-5-yl)-2-(1,1-difluoropropyl)isonicotinamide]
4.82	Cc1ccc(NC(=O)c2ccnc(C(C)(C)C#N)c2)cc1-c1cc(N2CCOCC2)nc(N2CC(C)(O)C2)c1 [Example 1110, 2-(2-cyanopropan-2-yl)-N-(3-(2-(3-hydroxy-3-methylazetidin-1-yl)-6-morpholinopyridin-4-yl)-4-methylphenyl)isonicotinamide]
2.64	Cc1ccc(NC(=O)c2ccnc(C(C)C)c2)cc1-c1cc(N2CCOCC2)nc(N2CC(O)C2)c1 [Example 1069, N-(3-(2-(3-hydroxyazetidin-1-yl)-6-morpholinopyridin-4-yl)-4-methylphenyl)-2-isopropylisonicotinamide]
3.32	Cc1ccc(NC(=O)c2ccnc(S(C)(=O)=O)c2)cc1-c1cc(N2CCOCC2)nc(N2CC(O)C2)c1 [Example 1097, N-(3-(2-(3-hydroxyazetidin-1-yl)-6-morpholinopyridin-4-yl)-4-methylphenyl)-2-(methylsulfonyl)isonicotinamide]
1.4	Cc1ncc(NC(=O)c2cccc(C(F)(F)F)c2)cc1-c1cc(N2CCOCC2)c2nccn2n1 [Example 867, N-(6-methyl-5-(8-morpholinoimidazo[1,2-b]pyridazin-6-yl)pyridin-3-yl)-3-(trifluoromethyl)benzamide]
12.9	Cc1ncc(NC(=O)c2ccnc(C(C)(F)F)c2)cc1-c1cc(N2CCOCC2)nc(N2CC(O)C2)c1 [Example 1080, 2-(1,1-difluoroethyl)-N-(2′-(3-hydroxyazetidin-1-yl)-2-methyl-6′-morpholino-[3,4′-bipyridin]-5-yl)isonicotinamide]
1.3	Cc1ncc(NC(=O)c2ccnc(C(C)C)c2)cc1-c1cc(N2CCOCC2)c2nccn2n1 [Example 869, 2-isopropyl-N-(6-methyl-5-(8-morpholinoimidazo[1,2-b]pyridazin-6-yl)pyridin-3-yl)isonicotinamide]
1.32	Cc1ccc(NC(=O)c2ccnc(C(C)(C)C#N)c2)cc1-c1cc(N2CCOCC2)nc(N2CCOCC2)c1 [Example 1113, 2-(2-cyanopropan-2-yl)-N-(3-(2,6-dimorpholinopyridin-4-yl)-4-methylphenyl)isonicotinamide]
4.11	Cc1ncc(NC(=O)c2cccc(C(F)(F)F)c2)cc1-c1cc(N2CCOCC2)c(S(C)(=O)=O)nn1 [Example 919, N-(6-methyl-5-(6-(methylsulfonyl)-5-morpholinopyridazin-3-yl)pyridin-3-yl)-3-(trifluoromethyl)benzamide]
13.6	Cc1ncc(NC(=O)c2ccnc(C(C)(C)O)c2)cc1-c1cnc(OC(F)F)c(N2CCOCC2)c1 [Example 979, N-(6′-(difluoromethoxy)-2-methyl-5′-morpholino-[3,3′-bipyridin]-5-yl)-2-(2-hydroxypropan-2-yl)isonicotinamide]
0.9	Cc1ccc(NC(=O)c2ccnc(S(C)(=O)=O)c2)cc1-c1cc(N2CCOCC2)c2nccn2c1 [Example 851]
2.3	Cc1ccc(NC(=O)c2ccnc(C(C)(C)C#N)c2)cc1-c1nc2c(c(N3CCOCC3)n1)S(=O)(=O)CC2 [Example 855, 2-(2-cyanopropan-2-yl)-N-(4-methyl-3-(4-morpholino-5,5-dioxido-6,7-dihydrothieno[3,2-d]pyrimidin-2-yl)phenyl)isonicotinamide]

Same assay, conditions: read-out: b-Raf IC-50; Table 2; AlphaScreen, 3 hours reaction

IC50 [nM]	Structure (SMILES)
8.7	Cc1ccc(NC(=O)c2cccc(C3(C#N)CC3)c2Cl)cc1-c1cc(N2CCOCC2)c(=O)n(C)c1 [Example 346, 2-chloro-3-(1-cyanocyclopropyl)-N-(4-methyl-3-(1-methyl-5-morpholino-6-oxo-1,6-dihydropyridin-3-yl)phenyl)benzamide]
1.9	Cc1ncc(NC(=O)c2ccnc(C3(C#N)CC3)c2)cc1-c1cnc(N(C)C)c(N2CCOCC2)c1 [Example 266, 2-(1-cyanocyclopropyl)-N-(6′-(dimethylamino)-2-methyl-5′-morpholino-[3,3′-bipyridin]-5-yl)isonicotinamide]
4	COCCOc1ncc(-c2cc(NC(=O)c3cccc(C(F)(F)F)c3)cnc2C)cc1N1CCOCC1 [Example 312, N-(6′-(2-methoxyethoxy)-2-methyl-5′-morpholino-[3,3′-bipyridin]-5-yl)-3-(trifluoromethyl)benzamide]
0.8	Cc1ccc(NC(=O)c2cc(C(C)C)on2)cc1-c1cc(N2CCOCC2)c(=O)n(C)c1 [Example 371, 5-isopropyl-N-(4-methyl-3-(1-methyl-5-morpholino-6-oxo-1,6-dihydropyridin-3-yl)phenyl)isoxazole-3-carboxamide]
16.5	CCOc1ncc(-c2cc(NC(=O)c3cnnc(C(C)(C)C#N)c3)cnc2C)cc1N1CCOCC1 [Example 287, 6-(2-cyanopropan-2-yl)-N-(6′-ethoxy-2-methyl-5′-morpholino-[3,3′-bipyridin]-5-yl)pyridazine-4-carboxamide]
